Measurements taken from patent publication US5463125A, “Phenyl alcohol amides having anticonvulsant activity” (priority 1993, dated 1995).
Where two headings read alike, the source gives them in different places.

Experiments:
[1] = 4-aminopyridine (4-AP) anticonvulsant test; type: in vivo, mice (male albino, NMR-1 strain); conditions: Mus musculus, ip, mice; 4-AP i.p.; abolition of tonic components
Protocol: (§1) Male albino mice (NMR-1 strain) weighing 28-32 gm were used in a mouse anticonvulsant and rotarod test. Each of the test compounds (n=0, 1 and 2) were dissolved in a 10% polyethylene glycol-400 saline solution and were administered intraperitoneally (i.p.). Convulsant agents were dissolved in saline solution, buffered with 15 mmol/l Tris-HCl, pH 7.4, except for bicuculline, which was first dissolved in 0.025N HCl, adjusting to pH 4 with a 0.15 mol/l citrate-phosphate buffer. The convulsant dose inducing seizures in 97% of mice (CD97) was determined and used in the pharmacological test. CD97 values obtained were: 85 for pentetrazol (PTZ), 15 for 4-aminopyridine (4-AP), 3.3 for bicuculline (BIC), 20 for thiosemicarbazide (TSC), and 2.0 for strychnine (STR) expressed as mg kg^-1. The time of peak drug effect was evaluated for each anticonvulsant before determining the dose-response curves. Convulsant agents were either injected subcutaneously (s.c. into the back of the neck (BIC, picrotoxin (PIC) and PTZ) or administered i.p. (4-AP, TSC and STR).
(§2) Abolition of the tonic components of the seizure was the end point, except for PTZ, where suppression of seizures of at least 5 seconds duration was considered the end point. […] The ED50, TD50 and 95% confidence intervals were calculated by the method of Litchfield and Wilcoxon. See Litchfield et al., J. Pharmacol. Exp. Ther. 96, 99 (1949).
(§3) (PTZ), 4aminopyridine (4AP), bicuculline (BIC), thiosemicarbazide (TSC),

Solubility = type: physicochemical
Protocol: The solid formed was separated by means of filtration and washed with cold benzene. This solid is the DL-HEPA that crystallizes from benzene. […]. […] Fusion point was 91°-92° C. Yield was 20%.
While still warm, the mixture was carefully neutralized with a 5% sulfuric acid solution using litmus paper. Once neutralized, the mixture was extracted with 50 ml volumes of ethyl ether. The ether was distilled in a rotating evaporator, and the white solid residue was the DL-HEPP that crystallizes with water. […] Its fusion point is 101°-102° C.

[2] = Picrotoxin (PIC) anticonvulsant test; type: in vivo, mice (male albino, NMR-1 strain)
Protocol: as §1, §2
(§4) strychnine (STR) and picrotoxin (PIC).

[3] = Strychnine (STR) anticonvulsant test; type: in vivo, mice (male albino, NMR-1 strain); conditions: for ED50: Mus musculus, ip, read-out: ED50 STR
Protocol: as §1, §2, §4

[4] = Accelerating rotarod ataxia test; type: in vivo, mice (male albino, NMR-1 strain)
Protocol: as §1
In a rotarod test, separate groups of mice were trained to stay on an accelerating rotarod that rotated initially at 2.16 rpm, then increased in speed to reach 22.5 rpm in 4 min. The drum diameter was 2.8 cm. Trained animals were dosed with the test compound or drug vehicle and were tested at the time of peak drug effect to measure the effects of the drug on motor performance. The dose at which 50% of the animals fell off the rotarod (TD50 value) was determined by probit analysis.
^b) Accelerating rotarod.

[5] = Thiosemicarbazide (TSC) anticonvulsant test; type: in vivo, mice (male albino, NMR-1 strain); conditions: Mus musculus, ip, 10 min, mice, abolition of tonic components, for compound 1 TSC given 10 min postdosing
Protocol: as §1, §2, §3

[6] = Maximal electroshock test (MES); type: in vivo, mice (male albino, NMR-1 strain); conditions: Mus musculus, ip, mice, at time of peak drug effect; 95% confidence interval
Protocol: as §1, §2
In a maximal electroshock test, maximal seizures were induced by application of an electrical current across the brain via carclip electrodes. The stimulus parameters for mice were 30-35 mA, A.C. in pulses of 60 Hz for 200 ms. Each compound was tested at the time of peak drug effect. The dose at which the hind limb tonic seizure was blocked in 50% of the animals (ED50 value) was determined by probit analysis.
as §3

[7] = Pentetrazol (PTZ) anticonvulsant test; type: in vivo, mice (male albino, NMR-1 strain); conditions: Mus musculus, ip, 10 min, mice; PTZ s.c.; suppression of seizures of at least 5 s; for compound 1 PTZ given 10 min postdosing (footnote d)
Protocol: as §1, §2
^a) Seizures provoked by: maximal electroshock (MES), pentetrazol
as §3

[8] = Bicuculline (BIC) anticonvulsant test; type: in vivo, mice (male albino, NMR-1 strain); conditions: Mus musculus, ip, mice; BIC s.c.; abolition of tonic components
Protocol: as §1, §2, §3

[9] = patients having grand mal seizures; cited from earlier work
[10] = in vivo; cited from earlier work
[11] = cats; cited from earlier work
[12] = mice; cited from earlier work
[13] = data obtained from NIH, ADD program; cited from earlier work
[14] = data obtained from NIH, ADD program; cited from earlier work; remark: listed apart in the source
[15] = constant speed rotarod; data obtained from NIH, ADD program; cited from earlier work
[16] = Convulsant dose inducing seizures in 97% of mice (CD97); type: in vivo, mice (male albino, NMR-1 strain)
Protocol: as §1

[17] = Preliminary test against convulsions provoked by pentylenetetrazol; type: in vivo; conditions: 100 mg kg^-1, i.p.
Description: Phenyl alcohol amide derivatives of the foregoing compounds wherein n=0 to 2 may be synthesized by substitution of the ethyl group at the center of chirality by either a methyl or phenyl group. […] Substitution of ethyl by phenyl in the n=0 and n=1 produces a loss in anticonvulsant activity.

[18] = administered i.p. (4-AP, TSC, STR)

CCC(O)(C(N)=O)c1ccccc1 (racemic) [Compound 1, (±)-2-hydroxy-2-phenylbutyramide]
ED50 [1]: 24 mg/kg
solubility (insoluble in) (Solubility): insoluble in cold benzene or water
solubility (soluble in) (Solubility): soluble in ethyl alcohol, chloroform and hot benzene
PIC effect ([2]; at 80 mgkg^-1): No effects
ED50 [3]: 56 mg/kg
strychnine activity relative to the n=2 compound ([3]; comparison in words): more than twice that of the n=2 compound
TD50 rotarod ataxia ([4]; accelerating rotarod, i.p., mice, compound 2 tested 30 min postdosing): 132 mg/kg
ED50 [5]: 47 mg/kg
ED50 [6]: 126 mg/kg
ED50 [7]: 67 mg/kg
ED50 [8]: 29 mg/kg

CCC(O)(CC(N)=O)c1ccccc1 (racemic) [Compound 2, (±)-3-hydroxy-3-phenylpentamide]
ED50 [1]: 19 mg/kg
solubility (insoluble in) (Solubility): insoluble in cold water
solubility (soluble in) (Solubility): soluble in ethyl alcohol, benzene and hot water
Maximum protection, PIC ([2]; at 130 mgkg^-1, PIC administered 15 min postdosing): 37%
picrotoxin test activity ([2]; dose of 130 mg kg^-1): active
Maximum protection, STR ([3]; at 100 mgkg^-1, STR administered 15 min postdosing): 30%
neurotoxicity in rotarod ataxia test ([4]; in words): unusually low neurotoxicity
TD50 ([4]; mouse, in vivo, ip, accelerating rotarod, i.p., mice, compound 2 tested 30 min postdosing, read-out: TD50 rotarod ataxia): 214 mg/kg
ED50 [5]: 43 mg/kg
ED50 [6]: 144 mg/kg
ED50 [7]: 63 mg/kg
ED50 [8]: 38 mg/kg

CCC(O)(CCC(N)=O)c1ccccc1 (racemic) [Compound 3, (±)-4-hydroxy-4-phenylhexanamide]
clinical antiepileptic action [9]: potent clinical antiepileptic action
profile of anticonvulsant activity [10]: broad profile of anticonvulsant activity
protection against hippocampal kindling [11]: protects
ED50 [1]: 29 mg/kg
protection against seizures provoked by bicuculline [12]: protects mice against seizures
protection against seizures provoked by maximal electroshock [12]: protects mice against seizures
protection against seizures provoked by pentetrazol [12]: protects mice against seizures
ED50 MES [13]: 147 mg/kg
PIC effect ([2]; at 120 mgkg^-1): No effects
ED50 [3]: 106 mg/kg
ED50 PTZ [14]: 58 mg/kg
TD50 ([4]; rotarod ataxia test): 111
ED50 [5]: 73 mg/kg
ED50 [6]: 148 mg/kg
TD50 rotarod ataxia [15]: 168 mg/kg
ED50 [7]: 63 mg/kg
ED50 [8]: 30 mg/kg

Nc1ccncc1 [4-aminopyridine]
CD97 [16, 18]: 15 mg/kg

CN1CCc2cc3c(cc2[C@H]1[C@@H]1OC(=O)c2c1ccc1c2OCO1)OCO3 [bicuculline]
CD97 ([16]; administered s.c. (PTZ, BIC)): 3.3 mg/kg

CC(O)(CC(N)=O)c1ccccc1 (stereo not drawn) [methyl group in the n=1 compound]
anticonvulsant activity against pentylenetetrazol convulsions [17]: suppresses anticonvulsant activity

CC(O)(C(N)=O)c1ccccc1 (stereo not drawn) [n=0 derivative]
anticonvulsant activity against pentylenetetrazol convulsions [17]: retains activity

CC(O)(CCC(N)=O)c1ccccc1 (stereo not drawn) [n=2 derivative]
anticonvulsant activity against pentylenetetrazol convulsions [17]: conserves half-potency

C1CCc2nnnn2CC1 [pentetrazol]
CD97 ([16]; administered s.c. (PTZ, BIC)): 85 mg/kg

O=C1C[C@@H]2OCC=C3CN4CC[C@]56c7ccccc7N1[C@H]5[C@H]2[C@H]3C[C@H]46 [strychnine]
CD97 [16, 18]: 2.0 mg/kg

NNC(N)=S [thiosemicarbazide]
CD97 [16, 18]: 20 mg/kg
